Measurements: patent publication US8679832B2, “Detection of protein translocation by beta-galactosidase reporter fragment complementation” (The Board of Trustees of the Leland Stanford Junior …, priority 2004, dated 2014)
Like-named read-outs stand apart in the source and are kept apart here.

Legend:
C1A domain from PKCγ = target: T1, C1A domain from PKCγ (Homo sapiens, UniProt P05129); test: Plasma membrane translocation assay: C1A domain of PKCγ fused to GFP-α mutants, tEGFR-ω in NIH 3T3 cells, β-galactosidase complementation; assay type: cell-based
T1 construct: the C1A domain from PKCγ was fused to four of the GFP-α point mutants; β-galactosidase α peptide carrying H31R, E41Q, N39D or N39Q (β-gal numbering; the mutation lies in the tag, not in PKCγ); expressed in transfected cells; host or cells: NIH 3T3 cells expressing tEGFR-ω
Source text: Creation of a plasma membrane translocation assay required expression of the ω fragment at the membrane which was achieved using the tEGFR-ω construct. When the target protein-α fusion move from the cytosol to the membrane, the local increased concentration of a peptide should drive complementation as illustrated in FIG. 4B. To determine which of the mutants would work best in this type of assay the C1A domain from PKCγ was fused to four of the GFP-α point mutants that complemented to varying degrees, H31R, E41Q, N39D, and N39Q. […] The ω fragment was tethered to the plasma membrane using the extracellular and transmembrane regions of the EGFR. Four of the mutants were fused to the C1A domain of PKCγ and co-expressed with the tEGFR. Their responses to 1 μM PMA for 20 min were expressed as a fold induction over background. The C1A domain efficiently translocated to the plasma membrane when exposed to phorbol esters such as PMA (FIG. 4C). The fusion proteins were expressed in NIH 3T3 cells expressing the tEGFR-ω, and assayed for increased complementation in the presence of PMA for 30 min.
The translocation of the C1A domain in response to PMA stimulation has been extensively characterized by fusion to GFP. The largest increase in fluorescence at the plasma membrane in response to PMA was reported to be 70% with the lowest dose of PMA detected using these methods being between 10 and 100 nM. […] Importantly, the requirement of the co fragment for complementation ensured that enzyme activity was only generated where the co-fragment was localized. Thus, the assay measured increases in protein concentration at a specific location in the cell.

C1A domain = target: T2, C1A domain (Homo sapiens, UniProt P05129); details: C1A-GFP, response to PMA, reported; cited from earlier work
T2 construct: The translocation of the C1A domain in response to PMA stimulation has been extensively characterized by fusion to GFP

glucocorticoid receptor = glucocorticoid receptor (Homo sapiens, UniProt P04150); details: 30 min of treatment
Sequence of glucocorticoid receptor (P04150 whole entry, species assumed, the tested form may be a part): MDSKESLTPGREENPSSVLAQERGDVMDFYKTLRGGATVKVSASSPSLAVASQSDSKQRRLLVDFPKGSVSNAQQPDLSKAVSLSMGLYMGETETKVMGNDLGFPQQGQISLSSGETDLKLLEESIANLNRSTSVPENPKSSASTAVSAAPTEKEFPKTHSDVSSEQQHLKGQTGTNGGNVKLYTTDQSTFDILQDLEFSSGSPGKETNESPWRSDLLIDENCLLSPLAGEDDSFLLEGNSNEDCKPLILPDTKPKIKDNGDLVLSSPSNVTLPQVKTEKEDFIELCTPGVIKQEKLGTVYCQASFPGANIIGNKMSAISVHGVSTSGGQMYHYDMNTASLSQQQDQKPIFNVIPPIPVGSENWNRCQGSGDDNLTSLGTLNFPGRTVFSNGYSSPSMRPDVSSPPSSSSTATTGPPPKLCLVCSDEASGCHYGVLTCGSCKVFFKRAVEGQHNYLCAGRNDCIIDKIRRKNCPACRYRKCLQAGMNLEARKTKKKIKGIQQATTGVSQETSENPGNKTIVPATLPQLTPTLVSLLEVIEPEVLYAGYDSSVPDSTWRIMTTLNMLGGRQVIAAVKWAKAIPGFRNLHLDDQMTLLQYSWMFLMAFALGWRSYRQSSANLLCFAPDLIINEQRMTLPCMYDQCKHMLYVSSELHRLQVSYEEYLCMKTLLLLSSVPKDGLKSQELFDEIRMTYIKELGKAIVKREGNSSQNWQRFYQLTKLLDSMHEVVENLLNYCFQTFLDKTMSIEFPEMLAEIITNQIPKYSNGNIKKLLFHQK
Source text: To test the applicability of the system to a physiological translocation event the glucocoticoid receptor was fused to the amino-terminus of the GFP-α fusion. The glucocoticoid receptor is a nuclear steroid hormone receptor that undergoes a robust nuclear translocation in response to treatment with various hormones including dexamethasone. This construct was stably introduced into both the co-NLS and tEGFR-ω cell lines then assayed for changes in β-galactosidase activity upon treatment of the cells with dexamethasone using the luminescent β-galactosidase substrate.
Cell lines shown in FIG. 3 A were treated with varying concentrations of dexamethasone and assayed over time. […] The GR-α cell lines were treated with 1 μM dexamethasone (red) for 3 hours then stained with the luorescent β-galactosidase DDAO substrate and analyzed by low cytometry.

[1] = system: Crm1 mediated nuclear export; test: Nuclear translocation gain of signal assay: NES-GFP-α-NLS co-expressed with ω-NLS, β-galactosidase complementation, luminescent substrate; assay type: cell-based, mouse; details: leptomycin B for 2 hours, C2C12 myoblasts
Source text: In order to utilize a complementation as a method of quantitatively assessing nuclear translocation events, two systems were designed that are distinct in the localization of the ω-fragment. FIG. 2A is a schematic showing the design of the nuclear translocation assay. In the let panel, the ω fragment is localized to the nucleus with a nuclear localization signal (NLS) and the cytosolic protein of interest is fused to the minimal α peptide. Upon stimulation the α fusion moves to the nucleus and complements the co, increasing β-galactosidase activity. In the right panel, the co fragment is tethered to the plasma membrane using the extracellular and transmembrane regions of EGFR. The cytosolic α-fusion complements spontaneously until stimulation when it translocates to the nucleus which results in a loss of enzyme activity.
The gain of signal assay (FIG. 2A left panel) localized the ω to the nucleus through fusion to a triplet SV40 nuclear localization signal (NLS). Thus, an increase in β-galactosidase activity should be observed when the target protein-α fusion moves from the cytosol to the nucleus. The loss of signal assay (FIG. 2 A right panel) localized the ω-fragment to the plasma membrane through fusion to the extracellular and transmembrane regions of the EGF receptor (tEGFR). […]

PH domain of AKT = test: AKT PH domain plasma membrane translocation: AKT-GFP-α in 3T3 fibroblasts with tEGFR-ω, luminescent β-galactosidase assay, 96-well; assay type: cell-based; details: 50 ng/ml PDGF, insulin, or sorbitol; 3T3 cells; maximal over time course
Method: To test whether the system was robust enough to monitor translocation events in response to physiologically relevant stimuli, this system was applied to the translocation of the PH domain of AKT. […] The PH domain of AKT was fused to the GFP-α chimera and expressed in 3T3 fibroblasts harboring the tEGFR-ω protein. […] The cells were stimulated under various conditions, and the translocation of the PH domain was assayed in 96-well dishes by a luminescent measure of β-galactosidase activity.

CCCCCCCCCCCCCC(=O)O[C@@H]1[C@@H](C)[C@@]2(O)[C@@H](C=C(CO)C[C@]3(O)C(=O)C(C)=C[C@@H]23)[C@@H]2C(C)(C)[C@]12OC(C)=O [PMA]
increase in signal (C1A domain from PKCγ; 800 nM PMA (saturating)): 1000% | saturating PMA concentration (C1A domain from PKCγ; C1A domain membrane translocation assay): 800 nM | increases in enzyme activity in the presence of PMA (C1A domain from PKCγ; β-galactosidase complementation, H31R): 700-1000% | largest increase in fluorescence at the plasma membrane (C1A domain): 70%

C[C@@H]1C[C@H]2[C@@H]3CCC4=CC(=O)C=C[C@]4(C)[C@@]3(F)[C@@H](O)C[C@]2(C)[C@@]1(O)C(=O)CO [dexamethasone]
difference in β-galactosidase activity (glucocorticoid receptor; gain of signal): 100% | difference in β-galactosidase activity (glucocorticoid receptor; loss of signal): 25%

CCC(=C/[C@H](C)C/C=C/C(C)=C/[C@@H](C)C(=O)[C@@H](C)[C@H](O)[C@@H](C)C/C(C)=C/C(=O)O)/C=C/[C@@H]1OC(=O)C=C[C@@H]1C [leptomycin B]
increase in β-galactosidase activity [1]: 3.5 fold

OC[C@@H](O)[C@@H](O)[C@H](O)[C@@H](O)CO [sorbitol]
increase in β-galactosidase activity (PH domain of AKT): 8 fold

H31R: α peptide of β-galactosidase with H31R mutation, low affinity (MGVITDSLAVVLQRRDWENPGVTQLNRLAARPPFASWRNSEEARTDRPSQQL; E. coli; PEPTIDE (1)..(52) alpha peptide (H31R))
induction of β-galactosidase activity in the presence of PMA (C1A domain from PKCγ; C1A-GFP-α mutant, 1 μM PMA, NIH 3T3 tEGFR-ω): 7 fold

platelet-derived growth factor [PDGF]
increase in β-galactosidase activity (PH domain of AKT): 5 fold

wt peptide: wild type α peptide of β-galactosidase (MGVITDSLAVVLQRRDWENPGVTQLNRLAAHPPFASWRNSEEARTDRPSQQL; E. coli; PEPTIDE (1)..(52) alpha peptide (wildtype))
increase in β-galactosidase activity in the presence of PMA (C1A domain from PKCγ; C1A-GFP-α wt peptide, PMA, NIH 3T3 tEGFR-ω): < 10%
